In patent US20230103444A1 (The Regents of the University of Colorado, a Body Corporate, priority 2020, published 2023):
Where two headings read alike, the source gives them in different places.

Assays:
[1] = system: TCF-transcription; experiment: TOPflash TCF-transcriptional reporter assay; assay type: cell-based, human; settings: TOPflash reporter in CRC cell lines (SW620, HCT116, DLD1CHD1L-OE), 24 h
Protocol: TOPflash assay (Millipore, Billerica, Mass.) was used to evaluate TCF transcriptional activity in CRC cells. A total of 20,000 cells per well were plated into 96-well white plates and transfected with TransIT®-LT1 transfection reagent (Mirus, Madison, Wis.). Cells were incubated with transfection mix for 24 h. Next, cells were washed with phosphate-buffered solution (PBS) and a 1:1 ratio of PBS:ONE-Glo™ luciferase reagent Promega (Madison, Wis.) was added and the luminescence was detected within 10 min. A duplicate experiment was conducted to measure cell viability using CellTiter-Glo® Luminescent Cell Viability Assay (Promega, Madison, Wis.), which was used to normalize TOPflash luminescence to obtain the fold change in TCF activity. Experiments were replicated 2× (n=3 for each experiment).
TCF-transcriptional Reporter Assay. […] Afterwards, cells from the white solid bottom plate were carefully washed with PBS and a 1:1 ratio of PBS:One-Glo Luciferase Assay System (Promega) was added, incubated for 10 min, and luminescence was quantified on Envision plate reader (PerkinElmer) for TCF-activity. As a control, cells from the clear plate were lysed with Mammalian Cell Lysis Buffer (Promega) and the total protein from each well was quantified with BCA assay (ThermoFisher).

[2] = target: T1, cat-CHD1L ATPase (Homo sapiens, UniProt Q86WJ1); experiment: CHD1L ATPase assay with recombinant catalytic domain (cat-CHD1L); assay type: biochemical; settings: for inhibition at 20 µM: confirmed HTS hits, HTS at 20 μM, read-out: inhibition against cat-CHD1L ATPase
T1 construct: inferred from Ni-NTA / imidazole purification; made in house; host or cells: E. coli Rosetta 2 (DE3) pLysS; constructs were a gift from Helena Berglund, Karolinska Institute
T1 sequence (Q86WJ1 16-611 limits assumed): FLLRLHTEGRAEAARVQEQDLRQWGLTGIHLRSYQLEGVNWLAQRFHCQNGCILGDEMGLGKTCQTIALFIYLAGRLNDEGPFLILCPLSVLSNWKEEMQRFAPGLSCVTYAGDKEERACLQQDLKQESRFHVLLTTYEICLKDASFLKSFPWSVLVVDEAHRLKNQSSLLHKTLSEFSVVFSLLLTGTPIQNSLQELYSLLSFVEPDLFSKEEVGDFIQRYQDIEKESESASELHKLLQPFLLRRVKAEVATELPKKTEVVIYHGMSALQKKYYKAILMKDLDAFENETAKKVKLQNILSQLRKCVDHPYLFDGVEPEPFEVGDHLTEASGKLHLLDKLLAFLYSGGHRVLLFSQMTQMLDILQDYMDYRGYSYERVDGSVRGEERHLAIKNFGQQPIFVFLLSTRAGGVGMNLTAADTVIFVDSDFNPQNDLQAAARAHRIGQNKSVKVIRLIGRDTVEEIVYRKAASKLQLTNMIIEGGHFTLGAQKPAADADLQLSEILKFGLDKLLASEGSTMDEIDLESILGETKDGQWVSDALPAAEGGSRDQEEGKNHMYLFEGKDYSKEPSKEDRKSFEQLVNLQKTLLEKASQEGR
Protocol: All reactions were carried out using low volume non-binding surface 384-well plates (Corning Inc., Corning N.Y.). cat-CHD1L or fl-CHD1L (100 nM) and 200 nM c-Myc DNA or mononucelosome (Active Motif, Carlsbad, Calif.) were added to a buffer containing 50 mM Tris pH 7.5, 50 mM NaCl, 1 mM DTT, 5% glycerol, and the reaction was initiated by the addition of 10 μM ATP (New England Biolabs, Ipswich, Mass.) to a total volume of 10 μL and incubated at 37° C. for 1 h. ATPase activity was assayed by adding 500 nM of Phosphate Sensor (Life Technologies, Carlsbad, Calif.), containing labeled phosphate-binding protein, specifically labeled with the fluorophore MDCC, and measuring excitation (430 nm) and emission (450 nm) immediately on an EnVision® plate reader (PerkinElmer, Hopkinton, Mass.). An inorganic phosphate standard curve was used to convert the fluorescence to [Pi], and enzyme kinetics were determined using Prism8 (GraphPad Software, San Diego, Calif.).
Assay composition was the same as described above using cat-CHD1L, except that the reaction mixture volume was modified to accommodate addition of drug or DMSO. Using a Janus® liquid handler (PerkinElmer, Hopkinton, Mass.), a selected amount of compounds dissolved in 100% DMSO were mixed with 50 mM Tris pH 7.5, 50 mM NaCl, 1 mM DTT, 5% glycerol buffer to 200 μM in 10% DMSO. […] The negative control used was 1% DMSO and 10 mM EDTA was used as a positive control. Reactions were initiated with the addition of 10 μM ATP and incubated at 37° C. for 1 h. ATPase activity was measured by fluorescence by adding 500 nM Phosphate Sensor. cat-CHD1L was screened against a 20,000-compound diversity set from Life Chemicals (Woodbridge, Conn.) and a Kinase Inhibitor library from Selleck Chemicals (Houston, Tex.).
CHD1L Enzyme ATPase Assay. […] All reactions were carried out using low volume nonbinding surface 384-well plates (Corning Inc., Corning, N.Y.). […] The reaction was initiated by the addition of 10 μmol/L ATP (New England Biolabs, Ipswich, Mass.) to a total volume of 10 μL and incubated at 37° C. for 1 hour. ATPase activity was measured by adding 500 nmol/L of Phosphate Sensor (ThermoFisher, Waltham, Mass.) measuring excitation (430 nm) and emission (450 nm) immediately on an Envision plate reader (PerkinElmer, Waltham, Mass.). Background signal was determined by using all assay components excluding the enzyme.

[3] = system: SW620 tumor organoids; experiment: Tumor organoid cytotoxicity (CellTiter-Glo 3D); settings: Homo sapiens
[4] = system: HCT116 tumor organoids; experiment: Tumor organoid cytotoxicity (CellTiter-Glo 3D); assay type: cell-based, human; settings: Homo sapiens
Protocol: Cell based cytotoxicity dose response and combination studies. […] Plates were then incubated for 3 days before treatment.
Cell Line Tumor Organoid Culture.
Tumor Organoid Cytotoxicity.

[5] = Mouse liver microsome stability; settings: CD-1, mouse, liver microsomes, pH 7.4, Microsomal stability Mouse t1/2 (min), Table 6
Protocol: Microsome stability. CD-1 mouse microsomes were commercially purchased and the reactions were performed as previously described. […] The master mix was pre-incubated at 37° C. for 5 min, then 1 mM NADPH was added to start the microsomal activity reaction and maintained at 37° C. throughout the time course. Reactions were stopped at 0, 5, 15, 30, 45, and 60 min by adding 200 μL acetonitrile and analyzed by mass spectrometry. The appropriate microsome controls were also performed in the same reaction conditions.

[6] = system: vimentin promoter activity; experiment: VimPro-GFP reporter 3D high-content imaging in tumor organoids; assay type: cell-based, human; settings: 72 h
Protocol: (§1) After validating hits 5-7 against CHD1L mediated TCF transcription, the ability of these compounds to reverse EMT and other malignant properties in CRC were evaluated. E-cadherin and vimentin are putative biomarkers for the epithelial and mesenchymal phenotypes, respectively. [McDonald et al., 2015] Loss of E-cadherin and gain of vimentin are also clinical biomarkers of poor prognosis. [Yun et al., 2014; Richardson et al., 2012; Dhanasekaran et al., 2001; Kashiwagi et al., 2010; Toiyama et al., 2013] Accordingly, lentiviral promoter driven reporters for E-cadherin (pCDH1-EcadPro-RFP) and vimentin (pCDH1-VimPro-GFP) were developed, which faithfully report E-cadherin and vimentin protein expression, respectively. [Zhou et al., 2016; Abraham et al., 2019] SW620 cells transduced with either EcadPro-RFP or VimPro-GFP were cultured as tumor organoids for 72 h, reaching a diameter of 600 μm. Tumor organoids were treated with compounds 5-7 for an additional 72 h to determine the effective concentration 50 percent (EC50) for modulating promoter activity. Changes in promoter expression was quantified using a 3D confocal image […] based high-content analysis algorithm (FIG. 2A-2B). [Zhou et al., 2016; Abraham et al., 2019]
(§2) Stable VimPro-GFP or EcadPro-RFP SW620 reporter cells were generated using pCDH imPro-GFP-EF1-puro virus or pCDH-EcadPro-mCherry-EF1-puro virus as previously reported. [Zhou et al., 2016; Abraham et al., 2019] The stable fluorescently labeled reporter cells were used to generate tumor organoids as described herein. Tumor organoids were treated with CHD1L inhibitors at 10 μM for an additional 72 h. Following treatment, tumor organoids were stained with 16 μM of Hoechst 33342 for 1 h (nuclei stain). Images were taken with a 5× air objective. Z-stacks were set at 26.5 μm apart for a total of 15 optical slices. Imaging and high-content analysis were performed using an Opera Phenix™ and Harmony® software (PerkinElmer, Hopkinton, Mass.). Nuclei were identified within each layer and cells were found with either GFP or mCherry channel. The fluorescence intensities of each channel were calculated and thresholds were set based on the background intensities. Percentages of GFP or mCherry RFP positive cells were calculated and normalized to the DMSO treated group.
3D High-Content Imaging and Analysis of EMT Dual-Reporter Activity. Tumor organoids were imaged using the Opera Phenix high-content screening system (PerkinElmer) in confocal mode utilizing a 10× air objective (NA 0.3). […] Organoids were also imaged in Brightfield to segment and perform high-content analysis of dual reporter specific fluorescence intensity. […] Both fluorescent signals were quantified and normalized as previously described. […]

[7] = system: E-cadherin promoter activity; experiment: EcadPro-RFP reporter 3D high-content imaging in tumor organoids; assay type: cell-based; settings: 72 h
Protocol: as §1
CHD1L has been reported to confer anti-apoptotic activity by inhibiting activation of caspase-dependent apoptosis. [Li et al., 2013; Sun et al., 2016] Additionally, reversal or inhibition of EMT is known to restore apoptotic activity of cancer cells. [Lu et al., 2014] To determine if CHD1L inhibitors reverse EMT prior to induction of cell death, E-cadherin expression by EcadPro-RFP reporter activity was monitored and cytotoxicity was measured using the CellTox™ Green assay. Cells were treated with CHD1L inhibitors for 72 h and imaged every 2 h.
as §2
3D High-Content Imaging and Analysis of EMT Dual-Reporter Activity. Tumor organoids were imaged using the Opera Phenix high-content screening system (PerkinElmer) in confocal mode utilizing a 10× air objective (NA 0.3). The following excitation and emission (Ex/Em) wavelengths were employed: RFP (561/570-630) and GFP (488/500-550). Organoids were also imaged in Brightfield to segment and perform high-content analysis of dual reporter specific fluorescence intensity. RFP fluorescent signal correlates with E-Cadherin promoter activity, while GFP fluorescent signal is correlates with vimentin promoter activity. Both fluorescent signals were quantified and normalized as previously described. (Esquer, et al., 2021)

[8] = Human microsomal stability; assay type: in vitro ADME; settings: human microsomes, Table 6, read-out: Microsomal stability Human t1/2
[9] = units given with the values (nM, μM), read-out: activity in dose response studies against cat-CHD1L ATPase (IC50, FIG. 1A)
[10] = SW-620, read-out: IC50 of cytotoxicity in SW620 cells
[11] = HCT-116, 72 h, Table 6, read-out: 3 D Cytotoxicity 72 hr IC50 (μM) HCT116
[12] = HCT-116, single agent, Table 4A, read-out: Tumor Organoid Cytotoxicity IC50 (μM) HCT116
[13] = SW620 or HCT116 tumor organoids
[14] = SW-620, 72 h, read-out: 3 D Cytotoxicity 72 hr IC50 (μM) SW620
[15] = Table 6, read-out: cat-CHD1L inhibition IC50

| SMILES | IC50 [3, 10] [µM] | IC50 [4, 11] [µM] | half-life at 10 μM [5] [h] | half-life [8] [h] | IC50 [3, 14] [µM] | IC50 [2, 15] [nM] | further results |
| --- | --- | --- | --- | --- | --- | --- | --- |
| CCc1nnc(NS(=O)(=O)c2ccc(NC(=O)c3nc4ccccc4s3)cc2)s1 [Compound 4] | – | – | – | – | – | – | inhibition of TCF-transcription, in words [1]: modest activity in cells with no dose dependent inhibition; inhibition at 20 µM [2]: > 50%; IC50 [2, 9]: 900 to 5000 nM |
| Cc1cc(Nc2ccc(NC(=O)Cc3c[nH]c4ccccc34)cc2)nc(N2CCCC2)n1 [Compound 6.5, 2-(1H-indol-3-yl)-N-(4-((6-methyl-2-(pyrrolidin-1-yl)pyrimidin-4-yl)amino)phenyl)acetamide] | < 10 | 2.2 | 1.17 | – | – | – | IC50 [4, 12]: 2.2 µM; downregulation of vimentin promoter activity (VimPro-GFP), in words [6, 13]: marked down-regulation of the VimPro-GFP; upregulation of E-cadherin promoter activity (EcadPro-RFP), in words [7, 13]: upregulation of EcadPro-RFP |
| Cc1cc(Nc2ccc(NC(=O)Cc3c[nH]c4cc(Cl)ccc34)cc2)nc(N2CCCC2)n1 [Compound 6.18, 2-(6-chloro-1H-indol-3-yl)-N-(4-((6-methyl-2-(pyrrolidin-1-yl)pyrimidin-4-yl)amino)phenyl)acetamide] | < 10 | 3 | 2.35 | 1.47 | 1.5 | – | IC50 ([3]; SW-620, read-out: Tumor Organoid Cytotoxicity IC50 (μM) SW620): 1.4 µM; IC50 [4, 12]: 2.95 µM |
| Cc1cc(NCc2ccc(NC(=O)Cc3cc(Br)cs3)cc2)nc(N2CCCC2)n1 [Compound 6.33] | < 10 | 11.6 | 1.27 | 0.637 | 4 | 300 | CHD1L enzyme inhibition, in words ([2]; recombinant cat-CHD1L): good enzyme inhibition |
| Cc1cc(Nc2ccc(NC(=O)Cc3ccco3)cc2)nc(N2CCCC2)n1 [Compound 6.39] | – | 10.8 | 1.17 | 1.48 | 14.2 | > 20000 | – |
| Cc1cc(N2CCCC2)nc(NCc2ccc(NC(=O)Cc3cc(Br)cs3)cc2)n1 [Compound 6.41] | – | 21.3 | 1.03 | 2.86 | 13.5 | 500 | – |
| Cc1ccc(Nc2nc(N3CCN(CCO)CC3)nc3nccnc23)cc1Cl [Compound 7] | – | – | – | – | – | – | EC50 ([6]; Homo sapiens, SW-620, read-out: EC50 downregulation of vimentin promoter activity, SW620 tumor organoids): 12.8 ± 1.3 µM; inhibition at 20 µM [2]: > 50%; IC50 [2, 9]: 900 to 5000 nM; EC50 ([7]; Homo sapiens, SW-620, read-out: EC50 upregulation of E-cadherin promoter activity, SW620 tumor organoids): 28 ± 0.003 µM |
